Laboratory results taken from ChEMBL document CHEMBL6153170 (J Med Chem, 2025).
pIC50: −log10 of the molar value. Values after ≈ are worked out from the molar mass of the structure shown. Active and inactive are the calls of the source. No cut-off for these calls is given here.

Tests used:
B16-F10 [1] = assay: Effect on acetylated histone H3 protein level in mouse B16-F10 cells at 0.1 to 2 uM incubated for 12 hrs by Western blot analysis; format: functional, cell-based; conditions: dose 0.1-2 µM
[2] = Toxicity in C57 mouse assessed as myelosuppression by measuring PCT level at 20 mg/kg/day, IG administered for 14 days by heat map analysis; format: organism-based; conditions: in vivo, po, 336 h, time 14 day
HepG2 [3] = assay: cells; conditions: Homo sapiens, HepG2, 48 h
[4] = Apparent volume of distribution during terminal phase in male Sprague-Dawley rat at 10 mg/kg, po measured after 48 hrs by triple quadrupole mass spectrometric analysis; format: ADME, organism-based; conditions: in vivo, read-out: Vz/F
[5] = Toxicity in C57 mouse assessed as myelosuppression by measuring PDW level at 20 mg/kg/day, IG administered for 14 days by heat map analysis; format: organism-based; conditions: in vivo, po, 336 h, time 14 day
[6] = MRT (0 to t) in male Sprague-Dawley rat at 2 mg/kg, iv measured after 48 hrs by triple quadrupole mass spectrometric analysis; format: ADME, organism-based; conditions: in vivo
B16-F10 [7] = assay: cells; conditions: Mus musculus, B16-F10, 48 h
[8] = molecular target: Histone deacetylase 1 (Mus musculus) (UniProt O09106); assay: Inhibition of HDAC1 in mouse B16-F10 cells assessed as increase in acetylated H3 level incubated for 12 hrs by Western blot analysis; format: cell-based
Chain of Histone deacetylase 1 (Mus musculus) (O09106 whole entry): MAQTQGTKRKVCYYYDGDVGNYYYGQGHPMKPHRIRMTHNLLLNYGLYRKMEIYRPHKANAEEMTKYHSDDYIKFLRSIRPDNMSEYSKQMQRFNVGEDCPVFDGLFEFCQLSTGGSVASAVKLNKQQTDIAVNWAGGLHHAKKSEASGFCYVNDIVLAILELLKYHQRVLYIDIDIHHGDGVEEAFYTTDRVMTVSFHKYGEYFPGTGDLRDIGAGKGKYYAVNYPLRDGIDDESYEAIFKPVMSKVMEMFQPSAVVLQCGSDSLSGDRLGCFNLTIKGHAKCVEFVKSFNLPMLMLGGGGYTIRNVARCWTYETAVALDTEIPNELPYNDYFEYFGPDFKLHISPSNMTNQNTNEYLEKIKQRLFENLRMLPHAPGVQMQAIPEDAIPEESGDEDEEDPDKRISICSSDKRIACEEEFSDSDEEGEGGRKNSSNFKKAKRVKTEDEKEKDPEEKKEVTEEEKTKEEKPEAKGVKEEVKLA

[9] = Toxicity in C57 mouse assessed as myelosuppression by measuring MCHC level at 20 mg/kg/day, IG administered for 14 days by heat map analysis; format: organism-based; conditions: in vivo, po, 336 h, time 14 day
[10] = Toxicity in C57 mouse assessed as change in UREA level at 20 mg/kg/day, IG administered for 14 days by heat map analysis; format: organism-based; conditions: in vivo, po, 336 h, time 14 day
[11] = Apparent clearance during terminal phase in male Sprague-Dawley rat at 10 mg/kg, po measured after 48 hrs by triple quadrupole mass spectrometric analysis; format: ADME, organism-based; conditions: in vivo
B16-F10 [12] = assay: Antitumor immunity activity against mouse B16-F10 cells implanted in C57BL/6 mouse model assessed as CD3+ CD4+ T cell percentage in tumor at 20 mg/kg/day, ip administered for 14 days by flow cytometric analysis (reference value: 0.095 %); format: functional; conditions: time 14 day
HepG2 [13] = assay: cells; conditions: Homo sapiens, HepG2, 48 h; remark: listed apart in the source
[14] = Aqueous solubility of compound incubated for 24 hrs by miniaturized shake flask based HPLC analysis; format: physicochemical; conditions: buffer
[15] = Toxicity in C57 mouse assessed as change in ALB level at 20 mg/kg/day, IG administered for 14 days by heat map analysis; format: organism-based; conditions: in vivo, po, 336 h, time 14 day
[16] = molecular target: T1, Histone deacetylase 3 (Mus musculus) (UniProt O88895); assay: Inhibition of HDAC3 in mouse B16-F10 cells assessed as increase in acetylated H3 level incubated for 12 hrs by Western blot analysis; format: cell-based
T1 sequence (whole entry): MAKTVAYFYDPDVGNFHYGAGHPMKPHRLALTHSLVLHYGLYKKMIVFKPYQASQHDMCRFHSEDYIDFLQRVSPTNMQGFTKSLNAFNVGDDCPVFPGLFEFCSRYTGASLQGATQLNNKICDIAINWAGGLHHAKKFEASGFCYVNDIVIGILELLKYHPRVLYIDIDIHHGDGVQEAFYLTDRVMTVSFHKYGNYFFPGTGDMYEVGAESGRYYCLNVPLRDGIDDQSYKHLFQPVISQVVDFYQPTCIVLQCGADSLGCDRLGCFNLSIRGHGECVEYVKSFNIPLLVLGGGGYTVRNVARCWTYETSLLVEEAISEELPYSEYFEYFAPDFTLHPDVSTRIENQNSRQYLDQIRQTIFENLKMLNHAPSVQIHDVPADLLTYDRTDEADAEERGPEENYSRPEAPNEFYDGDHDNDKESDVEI

Histone deacetylase 8 = molecular target: T2, Histone deacetylase 8 (Homo sapiens, UniProt Q9BY41); assay: Inhibition of C-terminal His-tagged recombinant full length human HDAC8 extracted from baculovirus infected Sf9 insect cells preincubated for 5 mins followed by substrate addition and measured after 30 mins by fluorescence microplate reader analysis
T2 sequence (Q9BY41 whole entry): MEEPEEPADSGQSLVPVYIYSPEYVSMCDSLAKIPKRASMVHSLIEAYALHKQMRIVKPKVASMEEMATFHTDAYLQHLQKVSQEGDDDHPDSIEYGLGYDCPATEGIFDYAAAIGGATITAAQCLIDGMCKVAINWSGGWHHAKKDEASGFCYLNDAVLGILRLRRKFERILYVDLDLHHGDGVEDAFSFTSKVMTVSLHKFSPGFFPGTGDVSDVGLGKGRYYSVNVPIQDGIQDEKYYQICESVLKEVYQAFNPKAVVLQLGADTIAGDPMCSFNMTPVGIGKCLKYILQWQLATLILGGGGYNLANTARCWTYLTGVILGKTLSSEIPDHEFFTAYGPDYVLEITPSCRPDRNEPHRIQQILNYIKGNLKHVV

[17] = molecular target: T3, Histone deacetylase 8 (Mus musculus) (UniProt Q8VH37); assay: Inhibition of HDAC8 in mouse B16-F10 cells assessed as increase in acetylated SMC3 level incubated for 12 hrs by Western blot analysis; format: cell-based
T3 sequence (whole entry): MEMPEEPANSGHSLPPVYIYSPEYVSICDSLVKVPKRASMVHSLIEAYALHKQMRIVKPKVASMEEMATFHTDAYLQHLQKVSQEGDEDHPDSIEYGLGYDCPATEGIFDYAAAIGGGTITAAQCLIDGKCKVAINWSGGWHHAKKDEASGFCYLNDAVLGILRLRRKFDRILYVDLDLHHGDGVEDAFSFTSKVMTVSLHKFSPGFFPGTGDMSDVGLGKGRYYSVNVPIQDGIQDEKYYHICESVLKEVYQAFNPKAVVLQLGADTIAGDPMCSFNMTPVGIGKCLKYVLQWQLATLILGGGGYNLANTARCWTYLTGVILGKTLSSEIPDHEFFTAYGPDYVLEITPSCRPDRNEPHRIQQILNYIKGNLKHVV

[18] = Half-life in male Sprague-Dawley rat at 2 mg/kg, iv measured after 48 hrs by triple quadrupole mass spectrometric analysis; format: ADME, organism-based; conditions: in vivo
B16-F10 [19] = assay: Antitumor immunity activity against mouse B16-F10 cells implanted in C57BL/6 mouse model assessed as CD3+ CD8+ T cell percentage in tumor at 20 mg/kg/day, ip administered for 14 days by flow cytometric analysis (reference value: 0.52 %); format: functional; conditions: time 14 day
[20] = molecular target: T4, Histone deacetylase 8 (Homo sapiens) (UniProt Q9BY41); assay: Inhibition of HDAC8 in human Jurkat T cells assessed as increase in acetylated SMC3 level incubated for 12 hrs by Western blot analysis; format: cell-based
T4 sequence (whole entry): T2 sequence (Q9BY41 whole entry)

B16-F10 [21] = assay: Antitumor immunity activity against mouse B16-F10 cells implanted in C57BL/6 mouse model assessed as CD3+ CD8+ T cell percentage in tumor at 20 mg/kg/day, ip co-administered with ACY-1215 for 14 days by flow cytometric analysis (reference value: 0.52 %); format: functional; conditions: time 14 day
HepG2 [22] = assay: Cytotoxicity against human HepG2 cells assessed as reduction in cell viability at 0.01 to 1 uM incubated for 48 hrs by MTT assay; format: functional, cell-based; conditions: dose 0.01-1 µM

Compound: COc1nc(-c2cccc(-c3ccccc3)c2C)ccc1CNCCCCCCC(=O)NO
- Activity (B16-F10 [1]): Active; Negligible Effect Observed
- Activity [2]: Non-toxic
- pIC50 (HepG2 [3]): 5.02
- Vd/F [4]: 31.9 L/kg
- Activity [5]: Non-toxic
- MRT last at 48 h [6]: 7.06 h
- pIC50 (B16-F10 [7]): 5.09
- inhibition [8]: inactive
- Activity [9]: Non-toxic
- Activity [10]: Non-toxic
- CLz/F [11]: 25 mL/min/kg
- Activity (B16-F10 [12]): 11.5%
- pIC50 (HepG2 [13]): 5.47
- solubility thermodynamic at 24 h [14]: 57 µg/mL (≈ 127 µM)
- Activity [15]: Non-toxic
- inhibition [16]: inactive
- pIC50 (Histone deacetylase 8): < 5.00
- inhibition [17]: inactive
- half-life [18]: 6.9 h
- Activity (B16-F10 [19]): 11.19%
- inhibition [20]: inactive
- Activity (B16-F10 [21]): 6.39%
- Activity (HepG2 [22]): inactive
